pIC50: −log10 of the molar value. Counter-ions that a name gives are not always drawn.
Experiments:
Assay type in all cases: biochemical
Human LOXL2 = Human LOXL2 (Homo sapiens (Human), UniProt Q9Y4K0); test: LOXL2 inhibition, peroxidase-coupled Amplex Red amine oxidase assay; conditions: 30 min preincubation at 37° C., putrescine substrate
Procedure, shortened: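 Enzyme in 1.2 M urea, 50 mM sodium borate pH 8.2 with 1 μM mofegiline and 0.5 mM pargyline, preincubated 30 min at 37° C with compound (11-point CRC). Putrescine at twice KM (10 mM for LOXL2) with Amplex Red/HRP; fluorescence (ex 565, em 590) read kinetically 30 min; IC50 from slopes.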

[1] = biological target: human recombinant SSAO/VAP-1 (Homo sapiens (Human), UniProt Q16853); test: Inhibition of human recombinant SSAO/VAP-1 amine oxidase activity; conditions: 30 min preincubation at 37° C., 600 μM benzylamine
Procedure, shortened: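 Purified SSAO/VAP-1 (residues 34-763, expressed in CHO Lec 8 cells; 0.25 μg/mL) preincubated 30 min at 37° C with compound in 0.1 M sodium phosphate pH 7.4. Reaction mix of 600 μM benzylamine, 120 μM Amplex Red and 1.5 U/mL HRP added; fluorescence (ex 565/em 590 nm) read every 2.5 min for 30 min; IC50 from kinetic slopes over 4-11 point curves.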

Bovine LOX = Bovine LOX (Bos taurus (Bovine), UniProt P33072); test: LOX inhibition, peroxidase-coupled Amplex Red amine oxidase assay; conditions: 30 min preincubation at 37° C., putrescine substrate
Procedure, shortened: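 Bovine LOX in 1.2 M urea, 50 mM sodium borate pH 8.2 with 1 μM mofegiline and 0.5 mM pargyline; putrescine at twice KM (e.g. 20 mM for LOX) with Amplex Red/HRP. Fluorescence (ex 565/em 590 nm) read kinetically over 30 min at 37–45 °C; IC50 from slopes.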

Recombinant human MAO-B = Recombinant human MAO-B (Homo sapiens (Human), UniProt P27338); test: Inhibition of human recombinant MAO-B; conditions: benzylamine 100 μM
Procedure, shortened: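 Recombinant human MAO-B used as enzyme source (0.06 mg/mL, stated concentration). Run as for the human SSAO/VAP-1 assay, except benzylamine substrate at 100 μM.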

Human LOXL2, sequence (Q9Y4K0 26-774): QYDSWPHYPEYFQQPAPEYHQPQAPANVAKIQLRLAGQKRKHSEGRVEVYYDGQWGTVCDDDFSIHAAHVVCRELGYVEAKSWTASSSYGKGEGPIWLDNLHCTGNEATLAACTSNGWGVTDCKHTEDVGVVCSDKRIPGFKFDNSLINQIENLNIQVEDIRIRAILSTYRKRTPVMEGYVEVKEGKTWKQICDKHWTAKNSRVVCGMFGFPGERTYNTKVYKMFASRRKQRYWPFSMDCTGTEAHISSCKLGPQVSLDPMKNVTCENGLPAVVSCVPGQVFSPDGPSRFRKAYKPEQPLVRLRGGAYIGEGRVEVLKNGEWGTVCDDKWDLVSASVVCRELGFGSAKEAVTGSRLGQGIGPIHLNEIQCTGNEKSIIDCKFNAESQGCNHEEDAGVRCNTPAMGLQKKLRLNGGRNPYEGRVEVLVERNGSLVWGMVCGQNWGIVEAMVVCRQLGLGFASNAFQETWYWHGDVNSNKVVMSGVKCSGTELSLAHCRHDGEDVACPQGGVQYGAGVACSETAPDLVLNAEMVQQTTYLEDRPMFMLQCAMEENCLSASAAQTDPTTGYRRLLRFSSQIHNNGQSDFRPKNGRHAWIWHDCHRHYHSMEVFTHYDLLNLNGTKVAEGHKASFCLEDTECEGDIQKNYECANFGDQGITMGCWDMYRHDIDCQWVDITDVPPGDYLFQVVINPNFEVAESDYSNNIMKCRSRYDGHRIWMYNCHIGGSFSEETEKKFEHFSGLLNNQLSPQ
Recombinant human MAO-B, sequence (P27338 whole entry): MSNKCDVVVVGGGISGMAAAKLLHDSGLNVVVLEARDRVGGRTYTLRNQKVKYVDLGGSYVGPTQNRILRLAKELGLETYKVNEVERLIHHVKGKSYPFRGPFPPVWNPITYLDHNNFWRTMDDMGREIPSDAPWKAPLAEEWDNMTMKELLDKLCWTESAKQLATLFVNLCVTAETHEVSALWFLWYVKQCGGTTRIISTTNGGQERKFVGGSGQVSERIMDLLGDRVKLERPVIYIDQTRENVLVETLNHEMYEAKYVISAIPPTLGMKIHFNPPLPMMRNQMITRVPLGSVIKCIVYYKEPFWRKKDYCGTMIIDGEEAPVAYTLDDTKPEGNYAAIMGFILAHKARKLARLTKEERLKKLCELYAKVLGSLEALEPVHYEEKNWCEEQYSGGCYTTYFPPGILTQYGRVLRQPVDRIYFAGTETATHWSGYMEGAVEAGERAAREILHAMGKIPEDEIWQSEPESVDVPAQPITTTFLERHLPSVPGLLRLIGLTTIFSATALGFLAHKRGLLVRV
Bovine LOX, sequence (P33072 170-418): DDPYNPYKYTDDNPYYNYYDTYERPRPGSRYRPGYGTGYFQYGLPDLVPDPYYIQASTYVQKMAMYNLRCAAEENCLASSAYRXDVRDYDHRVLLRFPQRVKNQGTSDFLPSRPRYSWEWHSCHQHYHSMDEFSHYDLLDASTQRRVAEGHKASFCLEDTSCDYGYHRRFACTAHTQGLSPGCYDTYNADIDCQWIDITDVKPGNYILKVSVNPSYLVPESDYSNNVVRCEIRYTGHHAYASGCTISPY
human recombinant SSAO/VAP-1, sequence (Q16853 34-763): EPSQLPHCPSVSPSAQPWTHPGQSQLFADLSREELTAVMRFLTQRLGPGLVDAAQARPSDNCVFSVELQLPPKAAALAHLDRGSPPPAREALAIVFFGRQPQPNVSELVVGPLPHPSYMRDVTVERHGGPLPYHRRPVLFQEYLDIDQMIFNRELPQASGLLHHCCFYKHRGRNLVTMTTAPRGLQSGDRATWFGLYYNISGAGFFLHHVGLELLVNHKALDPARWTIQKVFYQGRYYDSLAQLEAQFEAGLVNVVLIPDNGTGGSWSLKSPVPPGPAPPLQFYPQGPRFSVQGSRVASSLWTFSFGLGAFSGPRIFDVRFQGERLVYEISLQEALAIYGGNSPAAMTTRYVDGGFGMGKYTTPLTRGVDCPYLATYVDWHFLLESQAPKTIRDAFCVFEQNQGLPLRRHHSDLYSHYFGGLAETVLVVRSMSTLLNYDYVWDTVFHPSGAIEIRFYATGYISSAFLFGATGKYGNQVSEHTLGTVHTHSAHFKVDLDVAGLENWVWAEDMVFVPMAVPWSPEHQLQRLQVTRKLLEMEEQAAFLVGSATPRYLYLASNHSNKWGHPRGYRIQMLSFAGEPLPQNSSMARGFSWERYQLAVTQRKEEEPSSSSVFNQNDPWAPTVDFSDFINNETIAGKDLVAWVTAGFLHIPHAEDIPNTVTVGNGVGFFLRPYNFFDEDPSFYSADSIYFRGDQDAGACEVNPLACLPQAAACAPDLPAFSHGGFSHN

`Cc1c(-c2cccc(S(=O)(=O)N(C)C)n2)c2cc(Cl)ccc2n1C/C(F)=C/CN` [Compound 78, (Z)-6-(1-(4-amino-2-fluorobut-2-en-1-yl)-5-chloro-2-methyl-1H-indol-3-yl)-N,N-dimethylpyridine-2-sulfonamide] gave a pIC50 (Human LOXL2) greater than 6.52, a pIC50 [1] of less than 5.52 and a pIC50 (Bovine LOX) of less than 6.52. The pIC50 (Recombinant human MAO-B) was less than 5.52.
`Cc1c(-c2ccncc2)c2cc(C(=O)NC(C)(C)C)ccc2n1C/C(F)=C/CN` [Compound 91, (Z)-1-(4-amino-2-fluorobut-2-en-1-yl)-N-(tert-butyl)-2-methyl-3-(pyridin-4-yl)-1H-indole-5-carboxamide] gave a pIC50 (Human LOXL2) greater than 6.52, a pIC50 [1] of less than 5.52 and a pIC50 (Bovine LOX) of less than 6.52. For the same compound, the pIC50 (Recombinant human MAO-B) was less than 5.52.
`Cc1c(-c2cccc(S(N)(=O)=O)c2)c2cc(C(=O)N(C)C)ccc2n1C/C(F)=C/CN` [Compound 54, (Z)-1-(4-amino-2-fluorobut-2-en-1-yl)-N,N,2-trimethyl-3-(3-sulfamoylphenyl)-1H-indole-5-carboxamide] showed a pIC50 (Human LOXL2) greater than 6.52, a pIC50 [1] of less than 5.52 and a pIC50 (Bovine LOX) of less than 6.52. For the same compound, the pIC50 (Recombinant human MAO-B) was less than 5.52.
Work on `CN(C)S(=O)(=O)c1cncc(-c2c(Cl)n(C/C(F)=C/CN)c3ccccc23)c1` [Compound 96, (Z)-5-(1-(4-amino-2-fluorobut-2-en-1-yl)-2-chloro-1H-indol-3-yl)-N,N-dimethylpyridine-3-sulfonamide] yielded a pIC50 (Human LOXL2) greater than 6.52, a pIC50 [1] of less than 5.52 and a pIC50 (Bovine LOX) of less than 6.52. The pIC50 (Recombinant human MAO-B) was less than 5.52.
`Cc1c(-c2cncc(S(=O)(=O)N(C)C)c2)c2cc(Cl)ccc2n1C/C(F)=C/CN` [Compound 64, (Z)-5-(1-(4-amino-2-fluorobut-2-en-1-yl)-5-chloro-2-methyl-1H-indol-3-yl)-N,N-dimethylpyridine-3-sulfonamide] showed a pIC50 (Human LOXL2) greater than 6.52, a pIC50 [1] of less than 5.52 and a pIC50 (Bovine LOX) of less than 6.52. It also gave a pIC50 (Recombinant human MAO-B) of less than 5.52.
In the case of `Cc1c(-c2cccc(S(=O)(=O)N(C)C)c2)c2cc(S(=O)(=O)N(C)C)ccc2n1C/C(F)=C/CN` [Compound 58, (Z)-1-(4-amino-2-fluorobut-2-en-1-yl)-3-(3-(N,N-dimethylsulfamoyl)phenyl)-N,N,2-trimethyl-1H-indole-5-sulfonamide], the pIC50 (Human LOXL2) was greater than 6.52, the pIC50 [1] was less than 5.52 and the pIC50 (Bovine LOX) was less than 6.52. It also gave a pIC50 (Recombinant human MAO-B) of less than 5.52.
`Cc1c(-c2cncc(S(N)(=O)=O)c2)c2cc(Cl)ccc2n1C/C(F)=C/CN` [Compound 83, (Z)-5-(1-(4-amino-2-fluorobut-2-en-1-yl)-5-chloro-2-methyl-1H-indol-3-yl)pyridine-3-sulfonamide] was tested, and the pIC50 (Human LOXL2) was greater than 6.52, the pIC50 [1] was less than 5.52 and the pIC50 (Bovine LOX) was less than 6.52. The pIC50 (Recombinant human MAO-B) was less than 5.52.
For `Cc1c(-c2cccc(C(=O)O)c2)c2cc(S(=O)(=O)N(C)C)ccc2n1C/C(F)=C/CN` [Compound 34, (Z)-3-(1-(4-amino-2-fluorobut-2-en-1-yl)-5-(N,N-dimethylsulfamoyl)-2-methyl-1H-indol-3-yl)benzoic acid], the pIC50 (Human LOXL2) was greater than 6.52, the pIC50 [1] was less than 5.52 and the pIC50 (Bovine LOX) was less than 6.52. The pIC50 (Recombinant human MAO-B) was less than 5.52.
`CCOC(=O)c1ccc2c(c1)c(-c1ccc(F)cc1)c(C)n2C/C(F)=C/CN` [Compound 24, ethyl (Z)-1-(4-amino-2-fluorobut-2-en-1-yl)-3-(4-fluorophenyl)-2-methyl-1H-indole-5-carboxylate] gave a pIC50 (Human LOXL2) greater than 6.52, a pIC50 [1] of less than 5.52 and a pIC50 (Bovine LOX) of less than 6.52. For the same compound, the pIC50 (Recombinant human MAO-B) was less than 5.52.
In the case of `COC(=O)c1ccc2c(-c3cccc(S(=O)(=O)N(C)C)c3)c(C)n(C/C(F)=C/CN)c2c1` [Compound 7, (Z)-methyl 1-(4-amino-2-fluorobut-2-en-1-yl)-3-(3-(N,N-dimethylsulfamoyl)phenyl)-2-methyl-1H-indole-6-carboxylate], the pIC50 (Human LOXL2) was greater than 6.52, the pIC50 [1] was less than 5.52 and the pIC50 (Bovine LOX) was less than 6.52. For the same compound, the pIC50 (Recombinant human MAO-B) was less than 5.52.
Compound `Cc1ccc2c(n1)c(-c1cccc(S(=O)(=O)N(C)C)c1)c(C)n2C/C(F)=C/CN` [Compound 107, (Z)-3-(1-(4-amino-2-fluorobut-2-en-1-yl)-2,5-dimethyl-1H-pyrrolo[3,2-b]pyridin-3-yl)-N,N-dimethylbenzenesulfonamide Dihydrochloride] has a pIC50 (Human LOXL2) greater than 6.52, a pIC50 [1] of less than 5.52 and a pIC50 (Bovine LOX) of less than 6.52. It also gave a pIC50 (Recombinant human MAO-B) of less than 5.52.
`Cc1c(-c2cccc(S(=O)(=O)N(C)C)c2)c2cc(C(F)F)ccc2n1C/C(F)=C/CN` [Compound 59, (Z)-3-(1-(4-amino-2-fluorobut-2-en-1-yl)-5-(difluoromethyl)-2-methyl-1H-indol-3-yl)-N,N-dimethylbenzene-sulfonamide] gave a pIC50 (Human LOXL2) greater than 6.52, a pIC50 [1] of less than 5.52 and a pIC50 (Bovine LOX) of less than 6.52. The pIC50 (Recombinant human MAO-B) was less than 5.52.
With `Cc1c(-c2cncc(S(C)(=O)=O)c2)c2cc(Cl)ccc2n1C/C(F)=C/CN` [Compound 65, (Z)-4-(5-chloro-2-methyl-3-(5-(methylsulfonyl)pyridin-3-yl)-1H-indol-1-yl)-3-fluorobut-2-en-1-amine] the pIC50 (Human LOXL2) was greater than 6.52, the pIC50 [1] was less than 5.52 and the pIC50 (Bovine LOX) was less than 6.52. The pIC50 (Recombinant human MAO-B) was less than 5.52.
Work on `Cc1c(-c2cccc(S(=O)(=O)N(C)C)c2)c2ccc(C(=O)N(C)C)cc2n1C/C(F)=C/CN` [Compound 10, (Z)-1-(4-amino-2-fluorobut-2-en-1-yl)-3-(3-(N,N-dimethylsulfamoyl)phenyl)-N,N,2-trimethyl-1H-indole-6-carboxamide] yielded a pIC50 (Human LOXL2) greater than 6.52, a pIC50 [1] of less than 5.52 and a pIC50 (Bovine LOX) of less than 6.52. It also gave a pIC50 (Recombinant human MAO-B) of less than 5.52.
In the case of `Cc1c(-c2cccc(S(=O)(=O)N(C)C)c2)c2cc(NS(C)(=O)=O)ccc2n1C/C(F)=C/CN` [Compound 104, (Z)-3-(1-(4-amino-2-fluorobut-2-en-1-yl)-2-methyl-5-(methylsulfonamido)-1H-indol-3-yl)-N,N-dimethylbenzenesulfonamide Hydrochloride], the pIC50 (Human LOXL2) was greater than 6.52, the pIC50 [1] was less than 5.52 and the pIC50 (Bovine LOX) was less than 6.52. It also gave a pIC50 (Recombinant human MAO-B) of less than 5.52.
For `Cc1c(-c2cccc(S(=O)(=O)N(C)C)c2)c2ccc(C(=O)O)cc2n1C/C(F)=C/CN` [Compound 9, (Z)-1-(4-amino-2-fluorobut-2-en-1-yl)-3-(3-(N,N-dimethylsulfamoyl)phenyl)-2-methyl-1H-indole-6-carboxylic acid], the pIC50 (Human LOXL2) was greater than 6.52, the pIC50 [1] was less than 5.52 and the pIC50 (Bovine LOX) was less than 6.52. It also gave a pIC50 (Recombinant human MAO-B) of less than 5.52.
Work on `Cc1cc(-c2c(C)n(C/C(F)=C/CN)c3ccc(S(C)(=O)=O)cc23)ccn1` [Compound 94, (Z)-3-fluoro-4-(2-methyl-3-(2-methylpyridin-4-yl)-5-(methylsulfonyl)-1H-indol-1-yl)but-2-en-l-amine, Dihydrochloride] yielded a pIC50 (Human LOXL2) greater than 6.52, a pIC50 [1] of less than 5.52 and a pIC50 (Bovine LOX) of less than 6.52. It also gave a pIC50 (Recombinant human MAO-B) of less than 5.52.
For `Cc1c(-c2cccc(S(=O)(=O)N(C)C)c2)c2ncc(F)cc2n1C/C(F)=C/CN` [Compound 108, (Z)-3-(1-(4-amino-2-fluorobut-2-en-1-yl)-6-fluoro-2-methyl-1H-pyrrolo[3,2-b]pyridin-3-yl)-N,N-dimethylbenzenesulfonamide], the pIC50 (Human LOXL2) was greater than 6.52, the pIC50 [1] was less than 5.52 and the pIC50 (Bovine LOX) was less than 6.52. The pIC50 (Recombinant human MAO-B) was less than 5.52.
Compound `COc1ccc2c(n1)c(-c1cccc(SC)c1)c(C)n2C/C(F)=C/CN` [Compound 68, (Z)-3-fluoro-4-(5-methoxy-2-methyl-3-(3-(methylthio)phenyl)-1H-pyrrolo[3,2-b]pyridin-1-yl)but-2-en-1-amine Dihydrochloride] has a pIC50 (Human LOXL2) greater than 6.52, a pIC50 [1] of less than 5.52 and a pIC50 (Bovine LOX) of less than 6.52. It also gave a pIC50 (Recombinant human MAO-B) of less than 5.52.
`Cc1c(-c2ccc(F)cc2)c2cc(S(N)(=O)=O)ccc2n1C/C(F)=C/CN` [Compound 95, (Z)-1-(4-amino-2-fluorobut-2-en-1-yl)-3-(4-fluorophenyl)-2-methyl-1H-indole-5-sulfonamide] showed a pIC50 (Human LOXL2) greater than 6.52, a pIC50 [1] of less than 5.52 and a pIC50 (Bovine LOX) of less than 6.52. It also gave a pIC50 (Recombinant human MAO-B) of less than 5.52.
`Cc1c(-c2cccc(S(=O)(=O)N(C)C)c2)c2nc(N(C)C)ccc2n1C/C(F)=C/CN` [Compound 105, (Z)-3-(1-(4-amino-2-fluorobut-2-en-1-yl)-5-(dimethylamino)-2-methyl-1H-pyrrolo[3,2-b]pyridin-3-yl)-N,N-dimethylbenzenesulfonamide Dihydrochloride] gave a pIC50 (Human LOXL2) greater than 6.52, a pIC50 [1] of less than 5.52 and a pIC50 (Bovine LOX) of less than 6.52. The pIC50 (Recombinant human MAO-B) was less than 5.52.
In the case of `Cc1c(-c2c(C)n(C/C(F)=C/CN)c3ccc(C(=O)O)cc23)cccc1S(=O)(=O)N(C)C` [Compound 13, (Z)-1-(4-amino-2-fluorobut-2-en-1-yl)-3-(3-(N,N-dimethylsulfamoyl)-2-methylphenyl)-2-methyl-1H-indole-5-carboxylic acid], the pIC50 (Human LOXL2) was greater than 6.52, the pIC50 [1] was less than 5.52 and the pIC50 (Bovine LOX) was less than 6.52. The pIC50 (Recombinant human MAO-B) was less than 5.52.
